{
  "source": "patent US6867180B1",
  "about": "“Use of calreticulin and calreticulin fragments to inhibit endothelial cell growth and angiogenesis, and suppress tumor growth” (The United States of America as represented by the …, priority 1998, dated 2005)",
  "molecules": {"B1": {"name": "Cleaved calreticulin: calreticulin cleaved (factor Xa) and purified from MBP-calreticulin (protein, UniProt P27797 18-417, looked up)", "Calreticulin": "EPAVYFKEQFLDGDGWTSRWIESKHKSDFGKFVLSSGKFYGDEEKDKGLQTSQDARFYALSASFEPFSNKGQTLVVQFTVKHEQNIDCGGGYVKLFPNSLDQTDMHGDSEYNIMFGPDICGPGTKKVHVIFNYKGKNVLINKDIRCKDDEFTHLYTLIVRPDNTYEVKIDNSQVESGSLEDDWDFLPPKKIKDPDASKPEDWDERAKIDDPTDSKPEDWDKPEHIPDPDAKKPEDWDEEMDGEWEPPVIQNPEYKGEWKPRQIDNPDYKGTWIHPEIDNPEYSPDPSIYAYDNFGVLGLDLWQVKSGTIFDNFLITNDEAYAEEFGNETWGVTKAAEKQMKDKQDEEQRLKEEEEDKKRKEEEEAEDKEDDEDKDEDEEDEEDKEEDEEEDVPGQAKDEL"}, "B2": {"name": "peptide KAFFKR (Seq. I.D. No. 33) (peptide)", "peptide": "KAFFKR", "notes": "Synthetic peptide, coupled to Sepharose in a mixture with the two other peptides; also called portion of the estrogen receptor"}, "B3": {"name": "peptide KLGFFKR (Seq. I.D. No. 13) (peptide)", "peptide": "KLGFFKR", "notes": "Synthetic peptide, coupled to Sepharose in a mixture with the two other peptides; also called portion of an integrin"}, "B4": {"name": "peptide KVFFKR (Seq. I.D. No. 32) (peptide)", "peptide": "KVFFKR", "notes": "Synthetic peptide, coupled to Sepharose in a mixture with the two other peptides; also called portion of the glucocorticoid receptor"}},
  "key": {"[1]": {"tested_on": "human B cell lines VDS-O and CA-46", "test": "Proliferation of indicator B cell lines", "format": "cell-based", "settings": "1-100 μg/ml", "description": "Human mononuclear cells, and mononuclear cells enriched for T or B lymphocytes, were used in proliferation assays in the presence of phytohemagglutinin (Sigma), pokeweed-mitogen (Sigma), or Epstein-Barr virus (B95-8 strain), as described (Tosato et al., J. Immunol. 140:4329-4336, 1988). The lymphoblastoid cell line VDS-O (Tosato, et al., J. Immunol. 137:2037-2042, 1986); the Burkitt lymphoma cell lines CA46, BL-41, KK124, Ag876, SHO (Cherney et al., Cancer Res. 57:2508-2515, 1997); the T-cell line Molt-4 (ATCC); the Hodgkin's lymphoma cell line Hs445 (ATCC); the prostate adenocarcinoma cell lines TSU-Prl (from A. Passaniti, NIH, Baltimore, Md.), Du145 (ATCC), and PC3 (ATCC); and the acute promyelocytic leukemia cell line HL-60 (ATCC) were cultured in RPMI 1640 medium with 10% heat inactivated fetal calf serum (BioWhittaker), 20 mM L-glutamine (Sigma) and 5 μg/ml gentamicin, and tested in 3-5 day proliferation assays at cell densities ranging from 300 to 2400 cells/well. All other cell lines were tested for proliferation in 3-day assays. The neuroblastoma cell line SKNMC (ATCC) was cultured in EMEM medium (BioWhittaker) with 10% heat inactivated fetal calf serum (BioWhittaker) and 5 μg/ml gentamicin (Sigma) and tested for proliferation at 125-1000 cells/well. The lung adenocarcinoma cell line A549 (ATCC) was cultured in F-12 Nutrient Mixture (HAM, GIBCO BRL) with 10% heat inactivated fetal calf serum (BioWhittaker) and 5 μg/ml gentamicin (Sigma), and tested for proliferation at 250-2000 cells/well. The breast adenocarcinoma MDA-MB-468 (ATCC) and the Wilms tumor SK-NEP-1(ATCC) cell lines were cultured in Leibovitz L-15 medium (GIBCO BRL) supplemented with 10% heat inactivated fetal calf serum (BioWhittaker) and 5 μg/ml gentamicin (Sigma), and tested for proliferation at 300-2500 cells/well. The colon carcinoma cell line SW480 (ATCC), the melanoma cell line A-375 (ATCC), and human foreskin fibroblasts (H568, ATCC) were cultured in DMEM medium (BioWhittaker) with 10% heat inactivated fetal calf serum (BioWhittaker) and 5 μg/ml gentamicin (Sigma), and were tested for proliferation at 500-4000 cells/well. All cell lines tested mycoplasma negative."}, "[2]": {"tested_on": "Fetal bovine heart endothelial cells", "method": "Fetal bovine heart endothelial cells (American Type Culture Collection, ATCC, Manassas, Va.) were grown through passage 12 in DMEM culture medium (BioWhittaker, Walkersville, Md.) containing 10% heat inactivated fetal bovine serum (BioWhittaker), 100 ng/ml bFGF (R&D Systems, Minneapolis, Minn.), and 5 μg/ml gentamicin (Sigma). For proliferation assays, cells were trypsinized (Trypsin/EDTA, Gibco BRL), washed, suspended in culture medium (DMEM containing 10% heat inactivated fetal bovine serum and 5 μg/ml gentamicin), plated (800 cells/well in 0.2 ml culture medium) in triplicate onto 96 well plates, and incubated for 5 days."}, "[3]": {"tested_on": "bFGF-induced neovascularization", "test": "Murine Matrigel assay of angiogenesis in vivo", "parameters": "species or system BALB/c nude mice", "settings": "Exp. 4; concentration not given; bFGF 150 ng/ml", "protocol": "The murine Matrigel assay (Passaniti et al., Lab. Invest. 67:519-528, 1992) was employed to evaluate the effects of calreticulin and calreticulin fragments on angiogenesis in vivo. The Matrigel assay was performed as described by Angiolillo et al. (J. Exp. Med. 182:155-162, 1995). Matrigel, a crude extract of the Englebreth-Holm-Swarm tumor, was obtained from Collaborative Biomedical Products, Becton Dickinson Labware, Bedford, Mass. An aliquot (0.5 ml) of Matrigel alone or with desired additives was injected subcutaneously (s.c.) into the mid abdominal region of female BALB/c nude mice, 6-8 weeks old. Five mice were injected with each mixture. After 5-7 days, the animals were sacrificed, Matrigel plugs were removed, fixed in 10% neutral buffered formalin solution (Sigma), and embedded in paraffin. Tissues were sectioned (5μ thickness), and slides stained with Masson's trichrome. Quantitative analysis of angiogenesis in Matrigel plugs utilized a computerized semi-automated digital analyzer (Optomax, 40-10 System, Hollis, N.H.). The instrument was adjusted to evaluate a circular area measuring […] of Matrigel, and within this area, to measure the area occupied by cells. For each plug, 12-15 distinct fields were evaluated. The fields were randomly selected from each plug, and the operator was blind to the experimental design. The average area occupied by cells/1.26×10^5 […] Matrigel field was calculated. Results are expressed as the mean area occupied by cells/Matrigel field.\nMatrigel plugs were fixed in 10% neutral buffered formalin solution (Sigma), embedded in paraffin, sectioned at 4 μm, and stained with Masson's trichrome by standard methods."}, "[4]": {"molecular_target": "T1, recombinant MBP-calreticulin fragment 120-180 (Seq. I.D. No. 5) (human, UniProt P14211 137-197 (mouse entry))", "T1 construct": "also called MBP-120-180 calreticulin; 61 amino acid calreticulin fragment", "T1 sequence": "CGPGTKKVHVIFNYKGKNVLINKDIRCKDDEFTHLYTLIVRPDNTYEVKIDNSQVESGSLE", "test": "affinity column carrying a mixture of the three peptides on Sepharose", "protocol": "To this end, purified preparations of the VDS-O cell line containing full length calreticulin (Seq. I.D. No. 3) as well as N-terminal calreticulin fragments were prepared and tested to determine how these components were retained over an affinity column. To prepare the affinity column, three peptides were synthesized ([…], Seq. I.D. 13; KAFFKR, Seq. I.D. No. 33; and KVFFKR, Seq. I.D. No. 32), purified, and coupled to CNBr-activated Sepharose 4B (Pharmacia). […] The purified preparations of VDS-O cell line containing both full length as well as N-terminal calreticulin fragments were then loaded on the column (Starting material).\nTo address this issue further, recombinant MBP-calreticulin fragment 120–180 (Seq. I.D. No. 5) was tested for its ability to bind to the affinity column described supra."}, "[5]": {"settings": "Table 3 exp. 1, 50 μg/ml, bFGF 25 ng/ml, 5 days"}, "[6]": {"settings": "Table 3 exp. 1, 100 μg/ml, bFGF 25 ng/ml, 5 days"}, "[7]": {"settings": "Table 3 exp. 2, 100 μg/ml, bFGF 25 ng/ml, 5 days"}, "[8]": {"settings": "Table 3 exp. 1, 12.5 μg/ml, bFGF 25 ng/ml, 5 days"}, "[9]": {"settings": "Table 3 exp. 1, 25 μg/ml, bFGF 25 ng/ml, 5 days"}, "[10]": {"settings": "Table 3 exp. 2, 50 μg/ml, bFGF 25 ng/ml, 5 days"}, "[11]": {"settings": "Table 1 exp. 1-2, 1 μg/ml, bFGF 25 ng/ml, 5 days"}},
  "note": "Read-outs that look alike come from different tables or passages of the source. Where no end group is shown, it is not given here.",
  "data": [
    {"molecule": "GPGTKKVHVIFNYKGKNVLINKDIRCKDDEFTHLYTLIVRPDNTYEVKIDNSQVESGSLE [60 amino acid peptide]", "values": [
      {"measurement": "effect on proliferation of B cell lines VDS-O and CA-46", "setting": "[1]", "result": "neither peptide inhibited the proliferation"},
      {"measurement": "effect on proliferation of B cell lines VDS-O and CA-46", "setting": "[1]; listed as 60 amino acid fragment", "result": "minimal effect"},
      {"measurement": "Inhibition (%)", "setting": "[2]; [5]", "result": 40.1, "unit": "%"},
      {"measurement": "Proliferation (mean cpm/culture)", "setting": "[2]; [5]", "result": "8,318 cpm/culture"},
      {"measurement": "Inhibition (%)", "setting": "[2]; [6]", "result": 87.9, "unit": "%"},
      {"measurement": "Proliferation (mean cpm/culture)", "setting": "[2]; [6]", "result": "1,688 cpm/culture"},
      {"measurement": "Inhibition (%)", "setting": "[2]; [7]", "result": 59.5, "unit": "%"},
      {"measurement": "Proliferation (mean cpm/culture)", "setting": "[2]; [7]", "result": "3,709 cpm/culture"}
    ]},
    {"molecule": "NYKGKNVLINKDIRCKDDEFTHLYTLIVRPDNTYEVKIDNSQVESGSLE [49 amino acid peptide]", "values": [
      {"measurement": "effect on proliferation of B cell lines VDS-O and CA-46", "setting": "[1]", "result": "neither peptide inhibited the proliferation"},
      {"measurement": "effect on proliferation of B cell lines VDS-O and CA-46", "setting": "[1]; listed as 49 amino acid fragment", "result": "minimal effect"},
      {"measurement": "Inhibition (%)", "setting": "[2]; [8]", "result": 30.2, "unit": "%"},
      {"measurement": "Proliferation (mean cpm/culture)", "setting": "[2]; [8]", "result": "9,743 cpm/culture"},
      {"measurement": "Inhibition (%)", "setting": "[2]; [9]", "result": 56.7, "unit": "%"},
      {"measurement": "Proliferation (mean cpm/culture)", "setting": "[2]; [9]", "result": "6,037 cpm/culture"},
      {"measurement": "Inhibition (%)", "setting": "[2]; [5]", "result": 68.7, "unit": "%"},
      {"measurement": "Proliferation (mean cpm/culture)", "setting": "[2]; [5]", "result": "4,368 cpm/culture"},
      {"measurement": "Inhibition (%)", "setting": "[2]; [10]", "result": 45.4, "unit": "%"},
      {"measurement": "Proliferation (mean cpm/culture)", "setting": "[2]; [10]", "result": "5,004 cpm/culture"}
    ]},
    {"molecule": "RANTES [reference compound]", "values": [
      {"measurement": "inhibitory effect of control peptide in endothelial cell assays", "setting": "[2]", "result": "no inhibitory effect"},
      {"measurement": "Proliferation (mean cpm/culture)", "setting": "[2]; [6]", "result": "16,443 cpm/culture"},
      {"measurement": "Proliferation (mean cpm/culture)", "setting": "[2]; Table 3 exp. 2, 12.5 μg/ml, bFGF 25 ng/ml, 5 days", "result": "13,644 cpm/culture"},
      {"measurement": "Proliferation (mean cpm/culture)", "setting": "[2]; [10]", "result": "10,291 cpm/culture"}
    ]},
    {"molecule": "light chain of human ferritin: recombinant purified light chain of human ferritin [reference compound]", "values": [
      {"measurement": "effect on the proliferation of endothelial cells", "setting": "[2]; 1 pg to 1 μg/ml, not shown", "result": "minimal effect"}
    ]},
    {"molecule": "B1", "values": [
      {"measurement": "Inhibition (%)", "setting": "[3]", "result": 58, "unit": "%"},
      {"measurement": "Mean Surface Area Occupied by Cells", "setting": "[3]", "result": "3,464 mm^2/1.26 × 10^5 mm^2"},
      {"measurement": "Inhibition (%)", "setting": "[2]; [11]", "result": 72, "unit": "%"},
      {"measurement": "Proliferation mean cpm/culture (±SD)", "setting": "[2]; [11]", "result": "7,088 (1846) cpm/culture"}
    ]},
    {"molecule": "B2", "values": [
      {"measurement": "binding result", "setting": "[4]", "result": "no binding"}
    ]},
    {"molecule": "B3", "values": [
      {"measurement": "binding result", "setting": "[4]", "result": "no binding"}
    ]},
    {"molecule": "B4", "values": [
      {"measurement": "binding result", "setting": "[4]", "result": "no binding"}
    ]}
  ]
}
